Source: patent US9771351B2, “Wnt signaling inhibitor” (KYOWA HAKKO KIRIN CO., LTD., priority 2013, dated 2017)
Read-outs that look alike come from different tables or passages of the source.

How the values were obtained:
[1] = system: T-cell factor (TCF)-luciferase reporter using Wnt pathway as index; test: Inhibitory activity against TCF-luciferase reporter using Wnt pathway as index (DLD-1/TCF-Luc cells); format: cell-based, human; conditions: for inhibition at 1 µM: Homo sapiens, read-out: Inhibition ratio (%) at 1 μmol/L
Procedure, shortened: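 Human colorectal DLD-1 cells stably carrying a TCF-responsive luciferase reporter (pGL4.27) were exposed to test compound for 18 h at 37 °C. Luciferase luminescence read; % inhibition calculated relative to control and blank wells, reported at 1 μmol/L.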

[2] = biological target: T1, tankyrase-2 (Homo sapiens, UniProt Q9H2K2); test: Tankyrase-2 enzyme inhibition test (Tankyrase-2 Chemiluminescent Assay Kit); format: biochemical; conditions: autoribosylation of GST-tankyrase-2 fusion protein, chemiluminescence
T1 construct: purchased BPS Bioscience, Inc. 80566
T1 sequence (Q9H2K2 1-1166): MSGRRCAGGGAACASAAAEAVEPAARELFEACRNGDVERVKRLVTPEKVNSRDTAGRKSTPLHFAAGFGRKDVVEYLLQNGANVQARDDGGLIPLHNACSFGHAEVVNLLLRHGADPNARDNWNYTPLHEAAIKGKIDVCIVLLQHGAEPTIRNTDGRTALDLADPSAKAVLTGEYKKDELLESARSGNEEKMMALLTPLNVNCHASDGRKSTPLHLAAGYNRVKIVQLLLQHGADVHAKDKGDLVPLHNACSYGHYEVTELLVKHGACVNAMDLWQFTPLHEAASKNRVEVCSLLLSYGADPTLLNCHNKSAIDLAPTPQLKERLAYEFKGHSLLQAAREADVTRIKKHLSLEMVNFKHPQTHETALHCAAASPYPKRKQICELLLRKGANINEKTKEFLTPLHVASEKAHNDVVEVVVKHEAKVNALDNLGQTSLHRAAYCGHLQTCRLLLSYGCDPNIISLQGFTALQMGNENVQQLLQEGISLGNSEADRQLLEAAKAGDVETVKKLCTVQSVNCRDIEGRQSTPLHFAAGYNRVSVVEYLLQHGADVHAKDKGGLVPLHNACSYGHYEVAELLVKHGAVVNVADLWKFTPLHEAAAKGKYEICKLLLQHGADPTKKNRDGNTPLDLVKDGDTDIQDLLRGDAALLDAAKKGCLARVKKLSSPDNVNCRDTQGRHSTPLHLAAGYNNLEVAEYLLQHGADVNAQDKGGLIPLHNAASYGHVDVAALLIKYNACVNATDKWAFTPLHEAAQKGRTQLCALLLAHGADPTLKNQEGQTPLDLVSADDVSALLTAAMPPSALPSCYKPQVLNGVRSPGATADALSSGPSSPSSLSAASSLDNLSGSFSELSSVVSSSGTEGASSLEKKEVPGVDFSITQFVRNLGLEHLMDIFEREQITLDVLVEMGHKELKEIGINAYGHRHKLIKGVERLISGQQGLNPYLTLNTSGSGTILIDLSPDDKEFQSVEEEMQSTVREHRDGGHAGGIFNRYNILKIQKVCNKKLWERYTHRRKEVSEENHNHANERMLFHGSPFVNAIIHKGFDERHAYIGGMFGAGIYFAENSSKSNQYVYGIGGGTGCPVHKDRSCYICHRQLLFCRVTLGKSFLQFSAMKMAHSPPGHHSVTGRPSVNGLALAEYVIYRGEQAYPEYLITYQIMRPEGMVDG
Protocol: Test Example 2: Tankyrase-2 Enzyme Inhibition Test
The enzyme activity of tankyrase-2 was evaluated using Tankyrase-2 Chemiluminescent Assay Kit (BPS Bioscience, Inc., Catalog No. 80566). The Tankyrase-2 Chemiluminescent Assay Kit is a kit for evaluating the enzyme activity of tankyrase-2 using autoribosylation of glutathione-S-transferase (GST)-tankyrase-2 fusion protein as an index. All the experimental materials except for PBS (PBST) buffer containing phosphate-buffered saline (PBS) and 0.05% Tween 20 are all included in the kit. The GST-tankyrase-2 enzyme diluted with 50 μL of 1× tankyrase buffer was added to the wells of a 96-well plate coated with glutathione. After the plate was left to stand overnight at 4° C., the plate was washed 3 times with the PBST buffer. 150 μL of blocking buffer was added thereto, and the plate was left to stand at room temperature for 30 minutes to block the wells. The plate was washed 3 times with the PBST buffer. Before the ribosylation reaction, an assay mixture containing a biotinylated substrate and a test compound diluted with 1× tankyrase buffer were mixed, whereby a reaction mixture was prepared. In order to start the ribosylation reaction, 50 μL of the reaction mixture was added to the wells. In a blank well, 1× tankyrase buffer was added in place of the reaction mixture containing a biotinylated substrate. The plate was left to stand at 30° C. for 1 hour. After the reaction, the plate was washed 3 times with the PBST buffer. Streptavidin-horseradish peroxidase (HRP) was diluted to 50-fold with the blocking buffer. The diluted streptavidin-HRP was added to the wells, and the plate was left to stand at room temperature for 30 minutes. The plate was washed 3 times with the PBST buffer. Immediately before use, 50 μL of the HRP chemiluminescent substrate A and 50 μL of the HRP chemiluminescent substrate B were mixed and 100 μL of the resulting mixture was added to the wells. The chemiluminescence was measured using a chemiluminescence measuring apparatus. The inhibition ratio was obtained according to the following formula 2. [Math. 2] Inhibition ratio (%)=100−{(chemiluminescence intensity when test compound was added)−(chemiluminescence intensity of blank)}/{(chemiluminescence intensity of control)−(chemiluminescence intensity of blank)}×100 Formula 2

[3] = 1 μmol/L, DLD-1/TCF-Luc cells, luciferase activity after 18 hours

| Structure (SMILES) | inhibition at 1 µM [1, 3] [%] | Inhibition ratio (%) at 1 μmol/L [2] [%] | Inhibition ratio (%) at 1 μmol/L [1, 3] [%] | inhibition at 1 µM ([1]; DLD-1, 18 h) [%] |
| --- | --- | --- | --- | --- |
| COc1ccc2c(c1)CN(CC1CCN(c3nccc4nc[nH]c(=O)c34)CC1)C(=O)N2c1ccnc(C(N)=O)c1 [Compound 48, 4-(6-Methoxy-2-oxo-3-{[1-(4-oxo-3,4-dihydropyrido[4,3-d]pyrimidin-5-yl)piperidin-4-yl]methyl}-3,4-dihydroquinazolin-1(2H)-yl)picolinamide] | 84 | 93 | – | – |
| COc1cc2ncnc(N3CCC(CN4Cc5nccnc5N(c5ccnc(C#N)c5)C4=O)CC3)c2cc1OC [Compound 24, 4-(3-{[1-(6,7-Dimethoxyquinazolin-4-yl)piperidin-4-yl]methyl}-2-oxo-3,4-dihydropteridin-1(2H)-yl)picolinonitrile] | 86 | 92 | – | – |
| COc1cc2ncnc(N3CCC(CN4Cc5cc(S(C)(=O)=O)ccc5N(Cc5ccccc5C#N)C4=O)CC3)c2cc1OC [Compound 5, 2-[(3-{[1-(6,7-Dimethoxyquinazolin-4-yl)piperidin-4-yl]methyl}-6-(methylsulfonyl)-2-oxo-3,4-dihydroquinazolin-1(2H)-yl)methyl]benzonitrile] | 84 | 94 | – | – |
| N#Cc1cc(N2C(=O)N(CC3CCN(c4ncnc5[nH]c(=O)[nH]c45)CC3)Cc3ccccc32)ccn1 [Compound 36, 4-(2-Oxo-1-{[1-(8-oxo-8,9-dihydro-7H-purin-6-yl)piperidin-4-yl]methyl}-3,4-dihydroquinazolin-1(2H)-yl)picolinonitrile] | – | 88 | 79 | – |
| COc1cc2ncnc(N3CCC(CN4Cc5ccccc5N(c5ccnc(C#N)c5)C4=O)CC3)c2cc1OC [Compound 9, 4-(3-{[1-(6,7-Dimethoxyquinazolin-4-yl)piperidin-4-yl]methyl}-2-oxo-3,4-dihydroquinazolin-1(2H)-yl)picolinonitrile] | – | 91 | – | 74 |
